We go through four compounds from US20230159593A1, “CY[…]” (priority 2020, published 2023).

For one assay, the system named is HCV replication (SGR). Kind of assay: microbe, parasite or virus in culture. The format is cell-based. Particulars: Hepatitis C virus.
Another assay has as its target T1, CypB (Homo sapiens, UniProt P23284).
T1 construct: endogenous in cells; host or cells: Huh7 cells
The format is cell-based. Particulars: Huh7 cells, 1 μM.

The test system of assay [1] is HCV replication organelle (DMVs). The format is cell-based, Homo sapiens. To be noted: 5×EC90, 24 hours post-transfection.
A further assay deals with IFN-β mRNA. It is filed as cell-based, Homo sapiens. To be noted: HCV-replicating Huh7 cells, 5 μM, 48 h.
The target in a further assay is T2, CypA (Homo sapiens, UniProt P62937).
T2 construct: endogenous in cells; host or cells: Huh7 and Huh7.5 cells
T2 sequence (P62937 whole entry): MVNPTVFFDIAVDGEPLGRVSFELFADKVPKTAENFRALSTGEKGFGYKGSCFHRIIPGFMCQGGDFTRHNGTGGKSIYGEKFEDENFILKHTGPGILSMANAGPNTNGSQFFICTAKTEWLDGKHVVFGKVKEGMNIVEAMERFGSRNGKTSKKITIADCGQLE
The format is cell-based.

The next assay deals with IRF1 target genes. The format is cell-based, Homo sapiens. To be noted: HCV-replicating Huh7 cells, 5 μM, 48 hpe.
A further assay concerns HCVcc (J6/JFH1-RLuc). Nature of the assay: microbe, parasite or virus in culture. It is filed as cell-based, Hepatitis C Virus. Particulars: for IC50: Hepatitis C virus; for Effect on HCVcc infection at single dose: 72 h.
A further assay addresses T3, CypD (Homo sapiens, UniProt P30405).
T3 construct: endogenous in cells; host or cells: Huh7 cells
It is filed as cell-based. To be noted: Huh7 cells, 1 μM, 24 hours.

The subject of another assay is HIV-1 (GFP). Nature of the assay: Infection of U87 cells with HIV-1 (GFP), titration of inhibitors. It is filed as cell-based. Particulars: for IC50: Human immunodeficiency virus 1, U-87 MG; for Potency relative to CsA: U87 cells, HIV-1 (GFP). As for the experimental part:
FIG. 27: As explained in Example 3, this figure illustrates: in panel A, infection of U87 cells with HIV-1 (GFP), with a titration of inhibitors from 10 μm-0.04 μM (n=2±SEM), the vertical axis in each graph representing infectivity as a % of DMSO control; in panel B, Western blot of CypA in Huh7 cells 48 hrs after treatment with and without JW4-10.
Also used as a control in the experiments (see FIG. 27A) was SmBz ([Sarcosine-3(4-methylbenzoate)]-CsA). SmBz is disclosed in Malouitre et al. Biochem J. 2009 Dec. 14; 425(1):137-48. The anti HIV activity of SmBz is described in Rasaiyaah et al. Nature, 2013. 503(7476): p. 402-5.

The mark [2] stands for this setting: Huh7.5, Huh7.5, read-out: IC50 Replication (SGR).
Setting [3] is: Huh7.5-CTRL, read-out: IC50 Replication (SGR).
Where [4] appears, read: Huh-7, Huh7, read-out: IC50 Replication (SGR).
The mark [5] stands for this setting: Huh-7, Huh7 MAVS KO, read-out: IC50 Replication (SGR).
[6] abbreviates: Huh-7, Huh7 NT c7, read-out: IC50 Replication (SGR).
The mark [7] stands for this setting: Huh-7, read-out: IC50 Replication (SGR), Huh7 MAVS KO + C508R.
Setting [8] is: Huh7.5, read-out: IC50 HCVcc infection, Huh7.5.
[9] abbreviates: Huh-7, read-out: IC50 HCVcc infection, Huh7 NT c7.

Read-outs that look alike come from different tables or passages of the source.

T1 sequence (P23284 34-216): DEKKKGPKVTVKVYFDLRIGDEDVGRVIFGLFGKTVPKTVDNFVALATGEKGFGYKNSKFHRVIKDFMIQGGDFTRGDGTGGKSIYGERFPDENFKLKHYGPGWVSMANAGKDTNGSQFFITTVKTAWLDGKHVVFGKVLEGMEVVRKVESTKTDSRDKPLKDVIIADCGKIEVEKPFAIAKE
T3 sequence (P30405 30-207): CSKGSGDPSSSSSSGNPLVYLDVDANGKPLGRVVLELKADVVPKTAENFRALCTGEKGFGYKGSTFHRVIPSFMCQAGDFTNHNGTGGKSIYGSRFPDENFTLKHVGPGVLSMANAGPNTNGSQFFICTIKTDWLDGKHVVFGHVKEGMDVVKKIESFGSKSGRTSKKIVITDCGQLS

Regarding `CC[C@@H]1NC(=O)[C@H]([C@H](O)[C@H](C)C/C=C/CCCCC(=O)N[C@H](C(=O)N2C[C@H](O)C[C@H]2C(=O)N[C@@H](C)c2ccc(-c3scnc3C)cc2)C(C)(C)C)N(C)C(=O)[C@H](C(C)C)N(C)C(=O)[C@H](CC(C)C)N(C)C(=O)[C@H](CC(C)C)N(C)C(=O)[C@@H](C)NC(=O)[C@H](C)NC(=O)[C@H](CC(C)C)N(C)C(=O)[C@H](C(C)C)NC(=O)[C@H](CC(C)C)N(C)C(=O)CN(C)C1=O` [CsA-Prtc1, [Gly-(1S,2R,E)-10-amido (E3 ligase ligand)-1-hydroxy-2-methyloct-4-ene]^1 CsA], the IC50 worked out at 55 ± 7 nM in the assay on HCV replication (SGR) (setting [2]); 70 ± 13 nM with HCV replication (SGR) (setting [3]); 16 ± 2 nM with HCV replication (SGR) (setting [4]); 10 ± 1 nM in the assay on HCV replication (SGR) (setting [5]); 9 ± 1 nM in the assay with HCV replication (SGR) (setting [6]); 8 ± 1 nM with HCV replication (SGR) (setting [7]). For the same compound, the IC50 in the assay on HCVcc (J6/JFH1-RLuc) (setting [8]) stood at 14 ± 3 nM; in the assay with HCVcc (J6/JFH1-RLuc) (Huh-7, read-out: IC50 HCVcc infection, Huh7), 3 ± 1 nM; in the assay with HCVcc (J6/JFH1-RLuc) (setting [9]) it was 12 ± 2 nM; in the assay with HIV-1 (GFP), 90 ± 130 nM. The CypB protein expression result on CypB (24 hours) is reported as “minimal impact”; on CypB (48 hours) it was “CypB degradation was observed”. The “Number and size of DMVs” value in assay [1] is “significant reduction in the number and size of DMVs”. Further, the “Induction of IFN-β expression” value in the assay on IFN-β mRNA is on record as “not”. Besides, the “Proteasome dependence of CypA degradation” value at CypA (1 μM with or without MG132 (10 μM), 24 hours) is “proteasome-dependent”. In addition, the CypA degradation result is listed as “degradation of CypA” on CypA (Huh7 and Huh7.5 cells, 1 μM, 48 h); “degradation of CypA” on CypA (Huh7 cells, 48 hrs after treatment (FIG. 27B)). Besides, the “Induction of IRF1 target gene expression” value in the assay with IRF1 target genes was “did not induce expression of IRF1 target genes”. Also, the “Effect on HCVcc infection at single dose” value in the assay on HCVcc (J6/JFH1-RLuc) (Huh7, 1 μM) is given as “completely inhibited HCVcc infection”; in the assay with HCVcc (J6/JFH1-RLuc) (Huh7.5, 1 μM), “completely inhibited HCVcc infection”. The CypD protein expression result on CypD was “minimal impact”.

Turning to `CC[C@@H]1NC(=O)[C@H]([C@H](O)[C@H](C)C/C=C/CCCn2ccnc2)N(C)C(=O)[C@H](C(C)C)N(C)C(=O)[C@H](CC(C)C)N(C)C(=O)[C@H](CC(C)C)N(C)C(=O)[C@@H](C)NC(=O)[C@H](C)NC(=O)[C@H](CC(C)C)N(C)C(=O)[C@H](C(C)C)NC(=O)[C@H](CC(C)C)N(C)C(=O)CN(C)C1=O` [CsA-like, [Gly-(1S,2R,E)-8-(1H-imidazole-1-yl)-1-hydroxy-2-methyloct-4-ene]^1 CsA], the IC50 is 1370 ± 197 nM with HCV replication (SGR) (setting [2]); 527 ± 154 nM in the assay with HCV replication (SGR) (setting [3]); 950 ± 247 nM with HCV replication (SGR) (Huh7.5-Mda5, read-out: IC50 Replication (SGR)); 1230 ± 298 nM in the assay on HCV replication (SGR) (Huh7.5-RIG-I/Mda5, read-out: IC50 Replication (SGR)); 686 ± 181 nM in the assay with HCV replication (SGR) (Huh7.5-RIG-I, read-out: IC50 Replication (SGR)); 266 ± 37 nM in the assay with HCV replication (SGR) (setting [4]). Further, the IC50 turned out to be 1220 ± 224 nM in the assay with HCV replication (SGR) (Huh-7, Huh7 IRF1 KO c10, read-out: IC50 Replication (SGR)); 1590 ± 284 nM in the assay with HCV replication (SGR) (Huh-7, Huh7 IRF1 KO c11, read-out: IC50 Replication (SGR)); 160 ± 23 nM in the assay on HCV replication (SGR) (setting [5]); 184 ± 26 nM with HCV replication (SGR) (setting [6]); 971 ± 186 nM in the assay on HCV replication (SGR) (Huh-7, Huh7 PKR KO c1, read-out: IC50 Replication (SGR)); 1250 ± 327 nM with HCV replication (SGR) (Huh-7, Huh7 PKR KO c4, read-out: IC50 Replication (SGR)). Also, the IC50 amounted to 141 ± 28 nM in the assay on HCV replication (SGR) (setting [7]); 316 ± 83 nM in the assay on HCVcc (J6/JFH1-RLuc) (setting [8]); 123 ± 23 nM with HCVcc (J6/JFH1-RLuc) (setting [9]); 433 ± 101 nM in the assay with HCVcc (J6/JFH1-RLuc) (Huh-7, read-out: IC50 HCVcc infection, Huh7 PKR KO c4). Also, the “Induction of IFN-β expression” value with IFN-β mRNA is “capable of inducing IFN-β expression”.

Consider `CC[C@@H]1NC(=O)[C@H]([C@H](O)[C@H](C)C/C=C/CCOCCOCCOCCN[C@H](C(=O)N2C[C@H](O)C[C@H]2C(=O)N[C@@H](C)c2ccc(-c3scnc3C)cc2)C(C)(C)C)N(C)C(=O)[C@H](C(C)C)N(C)C(=O)[C@H](CC(C)C)N(C)C(=O)[C@H](CC(C)C)N(C)C(=O)[C@@H](C)NC(=O)[C@H](C)NC(=O)[C@H](CC(C)C)N(C)C(=O)[C@H](C(C)C)NC(=O)[C@H](CC(C)C)N(C)C(=O)CN(C)C1=O` [JW4-20], for which, in the assay with HIV-1 (GFP), the IC50 is 120 ± 50 nM and the “Potency relative to CsA” value is recorded as “increased potency”.

For `CC[C@@H]1NC(=O)[C@H]([C@H](O)[C@H](C)C/C=C/CCCN2CCN(CC(=O)N[C@H](C(=O)N3C[C@H](O)C[C@H]3C(=O)N[C@@H](C)c3ccc(-c4scnc4C)cc3)C(C)(C)C)CC2)N(C)C(=O)[C@H](C(C)C)N(C)C(=O)[C@H](CC(C)C)N(C)C(=O)[C@H](CC(C)C)N(C)C(=O)[C@@H](C)NC(=O)[C@H](C)NC(=O)[C@H](CC(C)C)N(C)C(=O)[C@H](C(C)C)NC(=O)[C@H](CC(C)C)N(C)C(=O)CN(C)C1=O` [JW4-21], in the assay on HIV-1 (GFP), the IC50 was 700 ± 80 nM and the “Potency relative to CsA” value is “decreased potency”.
